According to patent US10813888B2, “Formulations of cysteamine and cysteamine derivatives” (RECORDATI INDUSTRIA CHIMICA E FARMACEUTICA SPA, priority 2016, dated 2020):

Assay: In vitro dissolution test, USP Apparatus II at pH 1.2 for 1 hour
Format: physicochemical
Experimental: The in vitro dissolution tests were conducted in an USP Apparatus II at pH 1.2 for 1 hour. The cysteamine bitartrate raw material was completely dissolved in 10 minutes.

## NCCS.O=C(O)C(O)C(O)C(=O)O (stereo not shown) [cysteamine bitartrate raw material, cysteamine bitartrate]
  time to complete dissolution: 10 min
